Patent publication US8513260B2, “Pyrazinylpyrazoles” (Bayer CropScience AG, priority 2009, dated 2013)

test system: not listed separately; test: logP by HPLC on reversed-phase columns (C 18), EEC Directive 79/831 Annex V.A8; assay type: physicochemical; details: reversed-phase C18 HPLC column, pH 2.7, * LC-MS, acidic range pH 2.7, 0.1% aqueous formic acid and acetonitrile; read-out: log P
Excerpt: [table] The calibration is effected with unbranched alkan-2-ones (having 3 to 16 carbon atoms) with known logP values (logP values determined on the basis of the retention times by linear interpolation between two successive alkanones).

With COc1nccnc1-n1nc(C(F)(F)F)c(-c2cc(I)c3c(c2)OCO3)c1N [Ex. 139] as the molecule, how does the chromatographic logP read?
The chromatographic logP was 3.27.

For COc1cc(-c2c(C(F)(F)F)nn(-c3nccnc3OC)c2N)cc(Cl)c1OC [Ex. 141], which chromatographic logP is on record?
Its chromatographic logP is 3.22.

same assay, conditions: reversed-phase C18 HPLC column, pH 7.8, *** LC-MS, neutral range pH 7.8, 0.001 molar aqueous ammonium hydrogencarbonate and acetonitrile; read-out: log P

Which chromatographic logP does the source give for COc1nccnc1-n1nc(C(F)(F)F)c(-c2ccc(Br)cc2)c1N [Ex. 2] here?
The chromatographic logP was 3.4.

test system: unfed adult fleas (Ctenocephalides felis); test: Ctenocephalides felis test (CTECFE); assay type: in vivo; details: 100 ppm in citrated cow's blood; after 2 days
Protocol: Ctenocephalides felis Test ([…]) Solvent: 1 part by weight of dimethyl sulphoxide For the purpose of preparing an appropriate active ingredient formulation, 10 mg of active ingredient are mixed with 0.5 ml of dimethyl sulphoxide. A portion of the concentrate is diluted with citrated cow's blood and the desired concentration is established. About 20 unfed adult fleas (Ctenocephalides felis) are introduced into a chamber closed at the top and bottom with gauze. A metal cylinder, the bottom of which is closed with Parafilm, is placed onto the chamber. The cylinder contains the blood/active ingredient preparation, which can be imbibed by the fleas through the Parafilm membrane. After 2 days, the kill in % is determined. 100% means that all fleas have been killed; 0% means that none of the fleas have been killed.

With COc1nccnc1-n1nc(C(F)(F)C(F)(F)F)c(-c2cc(Cl)cc(C(F)(F)F)c2)c1N [Ex. 15] as the molecule, how does the “efficacy (kill)” value read?
The value was 95%.

same assay, conditions: Ctenocephalides felis, 48 h; 100 ppm in citrated cow's blood; after 2 days; read-out: efficacy (kill)

Which pest or weed control at 100 ppm does the source give for COc1nccnc1-n1nc(C(F)(F)F)c(-c2ccc(Br)cc2)c1N [Ex. 2] here?
The pest or weed control at 100 ppm was 90%.

For COc1nccnc1-n1nc(C(F)(F)F)c(-c2cc(I)c3c(c2)OCO3)c1N [Ex. 139], which pest or weed control at 100 ppm is on record?
Its pest or weed control at 100 ppm is 100%.

For COc1cc(-c2c(C(F)(F)F)nn(-c3nccnc3OC)c2N)cc(Cl)c1OC [Ex. 141], which pest or weed control at 100 ppm is on record?
The pest or weed control at 100 ppm was 100%.

test system: green peach aphid (Myzus persicae); test: Myzus test (MYZUPE spray treatment); assay type: in vivo; details: 500 g/ha, Chinese cabbage discs, after 6 days
Protocol: Myzus Test (MYZUPE Spray Treatment) Solvent: 78 parts by weight of acetone • • 1.5 parts by weight of dimethylformamide Emulsifier: 0.5 part by weight of alkylaryl polyglycol ether To prepare an appropriate active ingredient preparation, 1 part by weight of active ingredient is mixed with the stated amounts of solvent and emulsifier, and the concentrate is diluted with emulsifier-containing water to the desired concentration. Discs of Chinese cabbage (Brassica pekinensis) infested by all stages of the green peach aphid (Myzus persicae) are sprayed with an active ingredient preparation of the desired concentration. After 6 days, the efficacy in % is determined. 100% means that all of the aphids have been destroyed; 0% means that none of the aphids have been destroyed.

With COc1nccnc1-n1nc(C(F)(F)C(F)(F)F)c(-c2cc(Cl)cc(C(F)(F)F)c2)c1N [Ex. 15] as the molecule, how does the efficacy read?
The efficacy was 100%.

test system: Lucilia cuprina larvae; test: Lucilia cuprina test (LUCICU); assay type: in vivo; details: 48 h, treated horse meat, after 2 days, read-out: efficacy (kill)
Protocol: (§1) Lucilia cuprina Test (LUCICU) Solvent: dimethyl sulphoxide To prepare an appropriate active ingredient formulation, 10 mg of active ingredient are mixed with 0.5 ml of dimethyl sulphoxide and the concentrate is diluted with water to the desired concentration. Vessels containing horse meat treated with the active ingredient preparation of the desired concentration are populated with about 20 Lucilia cuprina larvae. After 2 days, the kill in % is determined. 100% means that all of the larvae have been killed; 0% means that none of the larvae have been killed.

With COc1nccnc1-n1nc(C(F)(F)F)c(-c2ccc(Br)cc2)c1N [Ex. 2] as the molecule, how does the pest or weed control at 100 ppm read?
The pest or weed control at 100 ppm was 100%.

Which pest or weed control at 100 ppm does the source give for COc1nccnc1-n1nc(C(F)(F)F)c(-c2cc(I)c3c(c2)OCO3)c1N [Ex. 139] here?
Its pest or weed control at 100 ppm is 100%.

Which pest or weed control at 100 ppm does the source give for COc1cc(-c2c(C(F)(F)F)nn(-c3nccnc3OC)c2N)cc(Cl)c1OC [Ex. 141] here?
Its pest or weed control at 100 ppm is 100%.

test system: red spider mite (Tetranychus urticae); test: Tetranychus test, OP-resistant (TETRUR spray treatment); assay type: in vivo; details: 500 g/ha, bean leaf discs, after 6 days
Protocol: Tetranychus Test, OP-Resistant (TETRUR Spray Treatment)
Solvent: 78.0 parts by weight of acetone • • 1.5 parts by weight of dimethylformamide
Emulsifier: 0.5 part by weight of alkylaryl polyglycol ether
To prepare an appropriate active ingredient preparation, 1 part by weight of active ingredient is mixed with the stated amounts of solvent and emulsifier, and the concentrate is diluted with emulsifier-containing water to the desired concentration. Discs of bean leaves (Phaseolus vulgaris) infested by all stages of the red spider mite (Tetranychus urticae) are sprayed with an active ingredient preparation of the desired concentration. After 6 days, the efficacy in % is determined. 100% means that all spider mites have been killed; 0% means that none of the spider mites have been killed.

For COc1nccnc1-n1nc(C(F)(F)C(F)(F)F)c(-c2cc(Cl)cc(C(F)(F)F)c2)c1N [Ex. 15], which efficacy is on record?
Its efficacy is 100%.

same assay, conditions: Tetranychus urticae, foliar, 144 h, 500 g/ha, bean leaf discs, after 6 days, read-out: efficacy

With COc1nccnc1-n1nc(C(F)(F)F)c(-c2ccc(Br)cc2)c1N [Ex. 2] as the molecule, how does the pest or weed control at 500 g/ha read?
Its pest or weed control at 500 g/ha is 100%.

Which pest or weed control at 500 g/ha does the source give for COc1nccnc1-n1nc(C(F)(F)F)c(-c2cc(I)c3c(c2)OCO3)c1N [Ex. 139] here?
Its pest or weed control at 500 g/ha is 80%.

For COc1cc(-c2c(C(F)(F)F)nn(-c3nccnc3OC)c2N)cc(Cl)c1OC [Ex. 141], which pest or weed control at 500 g/ha is on record?
The pest or weed control at 500 g/ha was 100%.

test system: larvae of the mustard beetle (Phaedon cochleariae); test: Phaedon test (PHAECO spray treatment); assay type: in vivo; details: 500 g/ha, Chinese cabbage discs, after 7 days
Protocol: Phaedon Test ([…] Spray Treatment) Solvent: 78.0 parts by weight of acetone • • 1.5 parts by weight of dimethylformamide Emulsifier: 0.5 part by weight of alkylaryl polyglycol ether To prepare an appropriate active ingredient preparation, 1 part by weight of active ingredient is mixed with the stated amounts of solvent and emulsifier, and the concentrate is diluted with emulsifier-containing water to the desired concentration. Discs of Chinese cabbage (Brassica pekinensis) are sprayed with an active ingredient preparation of the desired concentration and, after drying, populated with larvae of the mustard beetle (Phaedon cochleariae). After 7 days, the efficacy in % is determined. 100% means that all beetle larvae have been killed; 0% means that none of the beetle larvae have been killed.

With COc1nccnc1-n1nc(C(F)(F)C(F)(F)F)c(-c2cc(Cl)cc(C(F)(F)F)c2)c1N [Ex. 15] as the molecule, how does the efficacy read?
The efficacy was 100%.

same assay, conditions: Phaedon cochleariae, 168 h, Chinese cabbage discs, after 7 days, read-out: efficacy

With COc1nccnc1-n1nc(C(F)(F)F)c(-c2ccc(Br)cc2)c1N [Ex. 2] as the molecule, how does the pest or weed control at 500 g/ha read?
The pest or weed control at 500 g/ha was 100%.

With COc1nccnc1-n1nc(C(F)(F)F)c(-c2cc(I)c3c(c2)OCO3)c1N [Ex. 139] as the molecule, how does the pest or weed control at 500 g/ha read?
Its pest or weed control at 500 g/ha is 100%.

Which pest or weed control at 500 g/ha does the source give for COc1cc(-c2c(C(F)(F)F)nn(-c3nccnc3OC)c2N)cc(Cl)c1OC [Ex. 141] here?
Its pest or weed control at 500 g/ha is 100%.

test system: adult engorged Boophilus microplus females of the SP-resistant Parkhurst strain; test: Boophilus microplus (dip); assay type: in vivo; details: 100 ppm, after 7 days, laying of fertile eggs
Protocol: Boophilus microplus (dip)
Test animals: adult engorged Boophilus microplus females of the SP-resistant Parkhurst strain
Solvent: dimethyl sulphoxide
10 mg of active ingredient are dissolved in 0.5 ml of dimethyl sulphoxide. For the purpose of preparing a suitable formulation, the active ingredient solution is diluted with water to the concentration desired in each case. This active ingredient preparation is pipetted into tubes. 8-10 ticks are transferred into a further tube with holes. The tube is immersed into the active ingredient formulation, and all ticks are completely wetted. After the liquid has run out, the ticks are transferred onto filter discs in plastic dishes and stored in a climate-controlled room. The activity is assessed after 7 days by laying of fertile eggs. Eggs whose fertility is not outwardly visible are stored in glass tubes in a climate-controlled cabinet until the larvae hatch. Efficacy of 100% means that none of the ticks has laid any fertile eggs.

For COc1nccnc1-n1nc(C(F)(F)C(F)(F)F)c(-c2cc(Cl)cc(C(F)(F)F)c2)c1N [Ex. 15], which efficacy is on record?
Its efficacy is 100%.

same assay, conditions: Rhipicephalus microplus, 168 h, after 7 days, laying of fertile eggs, read-out: efficacy

With COc1nccnc1-n1nc(C(F)(F)F)c(-c2ccc(Br)cc2)c1N [Ex. 2] as the molecule, how does the pest or weed control at 100 ppm read?
The pest or weed control at 100 ppm was 100%.

test system: caterpillars of the armyworm (Spodoptera frugiperda); test: Spodoptera frugiperda test (SPODFR spray treatment); assay type: in vivo; details: 500 g/ha, maize leaf discs, after 7 days
Protocol: Spodoptera frugiperda Test (SPODFR Spray Treatment) Solvent: 78.0 parts by weight of acetone • • 1.5 parts by weight of dimethylformamide Emulsifier: 0.5 part by weight of alkylaryl polyglycol ether To prepare an appropriate active ingredient preparation, 1 part by weight of active ingredient is mixed with the stated amounts of solvent and emulsifier, and the concentrate is diluted with emulsifier-containing water to the desired concentration. Discs of maize leaves (Zea mays) are sprayed with an active ingredient preparation of the desired concentration and, after drying, populated with caterpillars of the armyworm (Spodoptera frugiperda). After 7 days, the efficacy in % is determined. 100% means that all caterpillars have been killed; 0% means that none of the caterpillars have been killed.

Which efficacy does the source give for COc1nccnc1-n1nc(C(F)(F)C(F)(F)F)c(-c2cc(Cl)cc(C(F)(F)F)c2)c1N [Ex. 15] here?
Its efficacy is 100%.

same assay, conditions: Spodoptera frugiperda, foliar, 168 h, maize leaf discs, after 7 days, read-out: efficacy

Which pest or weed control at 500 g/ha does the source give for COc1nccnc1-n1nc(C(F)(F)F)c(-c2cc(I)c3c(c2)OCO3)c1N [Ex. 139] here?
The pest or weed control at 500 g/ha was 100%.

With COc1cc(-c2c(C(F)(F)F)nn(-c3nccnc3OC)c2N)cc(Cl)c1OC [Ex. 141] as the molecule, how does the pest or weed control at 500 g/ha read?
The pest or weed control at 500 g/ha was 100%.

test system: adult Musca domestica; test: Musca domestica test; assay type: in vivo; details: 20 ppm; after 2 days
Protocol: as §1, with “Musca domestica” for “Lucilia cuprina”, “Test” for “Test (LUCICU)”, “a sponge” for “horse meat”, “adult Musca domestica.” for “about 20 Lucilia cuprina larvae.”, “flies” for “larvae”

For COc1nccnc1-n1nc(C(F)(F)F)c(-c2ccc(Br)cc2)c1N [Ex. 2], which “efficacy (kill)” value is on record?
Its value is 80%.

With COc1cc(-c2c(C(F)(F)F)nn(-c3nccnc3OC)c2N)cc(Cl)c1OC [Ex. 141] as the molecule, how does the “efficacy (kill)” value read?
The value was 80%.

same assay, conditions: 100 ppm; after 2 days

For COc1nccnc1-n1nc(C(F)(F)C(F)(F)F)c(-c2cc(Cl)cc(C(F)(F)F)c2)c1N [Ex. 15], which “efficacy (kill)” value is on record?
Its value is 95%.

test system: Boophilus microplus; test: Boophilus microplus test (BOOPMI injection); assay type: in vivo; details: 20 μg animal; injection into the abdomen; after 7 days, laying of fertile eggs
Protocol: Boophilus microplus Test (BOOPMI Injection) Solvent: dimethyl sulphoxide To prepare an appropriate active ingredient formulation, 10 mg of active ingredient are mixed with 0.5 ml of solvent and the concentrate is diluted with solvent to the desired concentration. The active ingredient solution is injected into the abdomen (Boophilus microplus), and the animals are transferred into dishes and stored in a climate-controlled room. The efficacy is assessed by laying of fertile eggs. After 7 days, the efficacy in % is determined. 100% means that none of the ticks has laid any fertile eggs.

Which efficacy does the source give for COc1nccnc1-n1nc(C(F)(F)C(F)(F)F)c(-c2cc(Cl)cc(C(F)(F)F)c2)c1N [Ex. 15] here?
The efficacy was 100%.

same assay, conditions: Rhipicephalus microplus, 168 h; 20 μg animal; injection into the abdomen; after 7 days, laying of fertile eggs; read-out: efficacy

With COc1nccnc1-n1nc(C(F)(F)F)c(-c2ccc(Br)cc2)c1N [Ex. 2] as the molecule, how does the pest or weed control at 0.02 mg read?
The pest or weed control at 0.02 mg was 100%.

For COc1nccnc1-n1nc(C(F)(F)F)c(-c2cc(I)c3c(c2)OCO3)c1N [Ex. 139], which pest or weed control at 0.02 mg is on record?
Its pest or weed control at 0.02 mg is 100%.

With COc1cc(-c2c(C(F)(F)F)nn(-c3nccnc3OC)c2N)cc(Cl)c1OC [Ex. 141] as the molecule, how does the pest or weed control at 0.02 mg read?
The pest or weed control at 0.02 mg was 100%.
